Measurements taken from patent US8445509B2, “Fused heterocyclic derivatives and use thereof” (Takeda Pharmaceutical Company Limited, priority 2008, dated 2013).

How the values were obtained:
[1] = molecular target: T1, c-Met intracellular domain protein (Homo sapiens, UniProt P08581); assay: Hepatocyte growth factor receptor (c-Met) kinase inhibitory activity (AlphaScreen); type: biochemical; settings: for inhibition at 1 µM: 1 μM test compound, read-out: inhibitory rate (%) at 1 μM
T1 construct: 2.5 ng/ml of c-Met intracellular domain protein (Millipore); purchased Millipore
T1 sequence (P08581 956-1390 limits assumed): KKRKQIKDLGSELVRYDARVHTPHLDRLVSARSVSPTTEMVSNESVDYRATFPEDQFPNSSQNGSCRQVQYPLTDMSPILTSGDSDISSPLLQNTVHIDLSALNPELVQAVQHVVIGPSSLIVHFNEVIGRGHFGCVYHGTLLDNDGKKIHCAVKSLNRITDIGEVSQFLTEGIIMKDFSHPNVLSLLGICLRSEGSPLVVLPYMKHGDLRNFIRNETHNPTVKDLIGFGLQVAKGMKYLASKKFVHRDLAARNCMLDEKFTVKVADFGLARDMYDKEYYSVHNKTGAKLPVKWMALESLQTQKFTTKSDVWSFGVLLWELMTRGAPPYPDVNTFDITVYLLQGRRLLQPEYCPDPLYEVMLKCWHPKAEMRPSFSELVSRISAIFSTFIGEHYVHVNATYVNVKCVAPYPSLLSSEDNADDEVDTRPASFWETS
Experimental: (§1) A test compound dissolved in dimethyl sulfoxide (DMSO) was diluted with a buffer (50 mM Tris-HCl (pH 7.5), 5 mM MgCl2, 5 mM MnCl2, 2 mM dithiothreitol, 0.01% Tween-20). To this compound solution (5 μL) was added a buffer (10 μL) containing 2.5 ng/ml of c-Met intracellular domain protein (Millipore) and 250 ng/mL of biotin labeled polypeptide biotinyl-poly-Glu:Tyr (4:1) (CIS bio International). […] The reaction solution was allowed to stand at 25° C. for 16 hrs, and the wells were counted using a plate reader (Fusion™ (PerkinElmer)). The kinase inhibitory rate (%) of the test compound was calculated by the following formula: Inhibitory rate (%)=(1−(count of test compound−blank)÷(control−blank))×100
(§2) The count of the solution reacted without addition of the compound was used as a “control”, and the count of the solution without the compound and ATP was used as a “blank”.

[2] = system: Human gastric cancer cell line MKN-45; assay: Human gastric cancer cell line MKN-45 growth inhibitory test; type: cell-based; settings: MKN-45, 72 h, culture for 3 days; for inhibition at 1 µM: 1 μM test substance, read-out: inhibitory rate (%) at 1 μM; for IC50: read-out: IC50 value
Procedure, shortened: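 MKN-45 cells plated at 3000/well in RPMI1640 with 0.3% FBS, then exposed to test substance for 3 days at 37 °C. Viability read by CCK-8 absorbance at 450 nm; IC50 from variable-slope sigmoidal fit, with DMSO as 100% growth and 10 µM reference c-Met inhibitor as 0% growth.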

[3] = molecular target: T2, VEGFR2 intracellular domain protein (Homo sapiens, UniProt P35968); assay: Vascular endothelial growth factor receptor 2 (VEGFR2) kinase inhibitory activity (AlphaScreen); type: biochemical
T2 construct: made in house; host or cells: SF-21 insect cells, recombinant baculovirus BAC-VEGFR2
T2 sequence (P35968 786-1356 limits assumed): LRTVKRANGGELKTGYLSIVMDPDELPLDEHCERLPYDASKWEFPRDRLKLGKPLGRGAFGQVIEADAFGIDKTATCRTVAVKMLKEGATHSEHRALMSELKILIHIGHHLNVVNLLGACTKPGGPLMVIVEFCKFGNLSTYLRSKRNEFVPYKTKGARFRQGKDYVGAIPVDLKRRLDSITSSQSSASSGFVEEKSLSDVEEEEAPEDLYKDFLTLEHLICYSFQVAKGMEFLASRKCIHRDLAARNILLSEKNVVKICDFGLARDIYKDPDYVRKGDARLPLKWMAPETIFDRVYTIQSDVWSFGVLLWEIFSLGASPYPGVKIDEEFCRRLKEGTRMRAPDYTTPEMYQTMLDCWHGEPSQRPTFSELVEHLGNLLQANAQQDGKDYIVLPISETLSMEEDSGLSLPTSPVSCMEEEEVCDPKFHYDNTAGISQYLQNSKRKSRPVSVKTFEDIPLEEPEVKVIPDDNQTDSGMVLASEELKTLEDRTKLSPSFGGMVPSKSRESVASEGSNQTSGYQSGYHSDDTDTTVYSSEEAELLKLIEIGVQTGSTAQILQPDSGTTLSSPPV
Experimental: Human vascular endothelial growth factor receptor 2 (hereinafter to be referred to as VEGFR2) gene was cloned by PCR using cDNA Libraries Human Placenta (Clontech) as a template. […] The primer base sequence is shown below.
SF-21 cells were sown at 1×10^6 cells/mL to Sf-900II SFM medium (1 L, Invitrogen) containing 10% fetal bovine serum (trace), 50 mg/L Gentamicin (Invitrogen) and 0.1% Pluronic F-68 (Invitrogen), and shaking culture was performed using a 2 L volume Erlenmeyer flask at 27° C., 100 rpm. After culturing for 24 hrs, recombinant baculovirus BAC-VEGFR2 (13.4 mL) was added to the mixture, and the mixture was further cultured for 3 days. The culture medium was centrifuged at 2,000 rpm for 5 min to give virus-infected cells. The infected cells were washed with a phosphate buffered saline (Invitrogen), centrifuged under the same conditions, and the cells were preserved at −80° C. The cryopreserved cells were thawed in ice, suspended in buffer A (50 mM Tris buffer (30 mL, pH 7.4) containing 20% glycerol, 0.15 M NaCl) supplemented with Complete Protease Inhibitor (Boehringer), and ruptured 3 times with a Polytron homogenizer (Kinematica) at 20,000 rpm for 30 sec. The ruptured medium was clarified by centrifugation at 40,000 rpm for 30 min and filtered with a 0.45 μm filter. The filtrate was passed through a column packed with Anti-FLAG M2 Affinity Gel (4 mL, Sigma) at a flow rate of about 0.5 mL/min. The column was washed with buffer A, and eluted with buffer A containing 100 μg/mL of FLAG peptide. The eluate was concentrated with Vivaspin 20 (Vivascience) having a molecular weight cut off of 30K. The buffer of this concentrate was exchanged using NAP™ 25 column (Amersham Bioscience) equilibrated with buffer A. The fractions containing intracellular domain protein of VEGFR2 were collected, glycerol was added to the final concentration of 50% and cryopreserved at −80° C.
as §1, with “50 ng/mL” for “2.5 ng/ml”, “VEGFR2” for “c-Met”, “protein” for “protein (Millipore)”
as §2

SMILES	IC50 [1] [µM]	inhibition at 1 µM [1] [%]	inhibition at 1 µM [2] [%]	IC50 [2] [µM]	IC50 [3] [µM]
Cc1cc(C(=O)Nc2ccc(Oc3ccc4nc(NC(=O)C5CC5)cn4c3)c(F)c2)c(=O)n(-c2ccc(F)cc2)c1 [Example 66, N-[4-({2-[(cyclopropylcarbonyl)amino]imidazo[1,2-a]pyridin-6-yl}oxy)-3-fluorophenyl]-1-(4-fluorophenyl)-5-methyl-2-oxo-1,2-dihydropyridine-3-carboxamide]	≤ 1	≥ 80	≥ 80	≤ 1	≤ 1
Cc1cc(C(=O)Nc2ccc(Oc3ccc4nc(NC(=O)C5CC5)cn4c3)c(F)c2)c(=O)n(-c2ccc(F)cc2)c1C [Example 70, N-[4-({2-[(cyclopropylcarbonyl)amino]imidazo[1,2-a]pyridin-6-yl}oxy)-3-fluorophenyl]-1-(4-fluorophenyl)-5,6-dimethyl-2-oxo-1,2-dihydropyridine-3-carboxamide]	≤ 1	≥ 80	≥ 80	≤ 1	≤ 1
Cc1ccc(C(=O)Nc2ccc(Oc3ccc4nc(NC(=O)C5CC5)cn4c3)cc2)[n+]([O-])c1-c1ccc(F)cc1 [Example 72, N-[4-({2-[(cyclopropylcarbonyl)amino]imidazo[1,2-a]pyridin-6-yl}oxy)phenyl]-6-(4-fluorophenyl)-5-methylpyridine-2-carboxamide 1-oxide]	≤ 1	≥ 80	≥ 80	≤ 1	≤ 1
Cc1ccc(C(=O)Nc2ccc(Oc3ccc4nc(NC(=O)C5CC5)cn4c3)c(F)c2)c(=O)n1-c1cccc(F)c1 [Example 75, N-[4-({2-[(cyclopropylcarbonyl)amino]imidazo[1,2-a]pyridin-6-yl}oxy)-3-fluorophenyl]-1-(3-fluorophenyl)-6-methyl-2-oxo-1,2-dihydropyridine-3-carboxamide]	≤ 1	≥ 80	≥ 80	≤ 1	≤ 1
Cc1ccc(C(=O)Nc2ccc(Oc3ccn4nc(NC(=O)C5CC5)nc4c3)c(F)c2)c(=O)n1-c1ccc(F)cc1 [Example 76, N-[4-({2-[(cyclopropylcarbonyl)amino][1,2,4]triazolo[1,5-a]pyridine-7-yl}oxy)-3-fluorophenyl]-1-(4-fluorophenyl)-6-methyl-2-oxo-1,2-dihydropyridine-3-carboxamide]	≤ 1	≥ 80	≥ 80	≤ 1	≤ 1
Cc1c(C(=O)Nc2ccc(Oc3ccc4nc(NC(=O)C5CC5)cn4c3)c(F)c2)c(=O)n(-c2ccc(F)cc2)n1C [Example 77, N-[4-({2-[(cyclopropylcarbonyl)amino]imidazo[1,2-a]pyridin-6-yl}oxy)-3-fluorophenyl]-2-(4-fluorophenyl)-1,5-dimethyl-3-oxo-2,3-dihydro-1H-pyrazole-4-carboxamide]	≤ 1	≥ 80	≥ 80	≤ 1	≤ 1
CC1CCN(C(=O)Nc2ccc(Oc3ccc4nc(NC(=O)C5CC5)cn4c3)c(F)c2)C(=O)N1c1ccc(F)cc1 (stereo not shown) [Example 80, N-[4-({2-[(cyclopropylcarbonyl)amino]imidazo[1,2-a]pyridin-6-yl}oxy)-3-fluorophenyl]-3-(4-fluorophenyl)-4-methyl-2-oxotetrahydropyrimidine-1(2H)-carboxamide]	≤ 1	≥ 80	≥ 80	≤ 1	≤ 1
CC1=C(c2ccc(F)cc2)C(=O)N(C(=O)Nc2ccc(Oc3ccc4nc(NC(=O)C5CC5)cn4c3)c(F)c2)CC1 [Example 81, N-[4-({2-[(cyclopropylcarbonyl)amino]imidazo[1,2-a]pyridin-6-yl}oxy)-3-fluorophenyl]-5-(4-fluorophenyl)-4-methyl-6-oxo-3,6-dihydropyridine-1(2H)-carboxamide]	≤ 1	≥ 80	≥ 80	≤ 1	≤ 1
